Measurements as given in ChEMBL document CHEMBL1155626, “Metabolites of Colletotrichum gloeosporioides, an endophytic fungus in Artemisia mongolica” (2000).
Values after ≈ are worked out from the molar mass of the structure shown.

Legend:
Assay type in all cases: functional
Micrococcus luteus = assay: Antimicrobial activity against Sarcina lutea after 48 hrs by paper disk assay
Bacillus subtilis = assay: Antimicrobial activity against Bacillus subtilis after 48 hrs by paper disk assay
Helminthosporium = assay: Antimicrobial activity against Helminthosporium sativum after 96 hrs by paper disk assay
Staphylococcus aureus = assay: Antimicrobial activity against Staphylococcus aureus after 48 hrs by paper disk assay

Row | MIC (Micrococcus luteus) | MIC (Bacillus subtilis) | MIC (Staphylococcus aureus) | Structure (SMILES) | MIC (Helminthosporium)
1 | 0.01 µg/mL (≈ 0.0286 µM) | 0.05 µg/mL (≈ 0.143 µM) |  | CC1(C)S[C@@H]2[C@H](NC(=O)[C@H](N)c3ccccc3)C(=O)N2[C@H]1C(=O)O [AMPICILLIN] | 
2 |  |  |  | CC(C)(C)C(=O)C(Oc1ccc(Cl)cc1)n1cncn1 (configuration not stated) [TRIADIMEFON] | 20 µg/mL (≈ 68.1 µM)
3 | 50 µg/mL (≈ 95.3 µM) | 25 µg/mL (≈ 47.7 µM) | 50 µg/mL (≈ 95.3 µM) | COc1c(C)c(OC(=O)c2c(C)cc(O)cc2O)c(C)c(C(=O)Oc2cc(O)c(C(=O)O)c(C)c2C)c1C [COLLETOTRIC ACID] | 50 µg/mL (≈ 95.3 µM)
